# From ChEMBL document CHEMBL5365536, “Synthesis of mizoribine prodrugs and their in vivo evaluation as immunosuppressive agents” (2023)
# Columns and labels:
# Assay type in all cases: functional
# Mus musculus [1] = assay: Immunosuppressive activity in anti-CD3-stimulated mouse assessed as reduction in IL-2 level in whole blood at 40 mg/kg, po measured after 8 hrs by flow cytometry analysis; set-up: scale not given: the % may be the effect or the level left
# Mus musculus [2] = assay: Immunosuppressive activity in anti-CD3-stimulated mouse assessed as reduction in IL-2 level in whole blood at 40 mg/kg, po measured after 1 hr by flow cytometry analysis; set-up: scale not given: the % may be the effect or the level left
# Mus musculus [3] = assay: Immunosuppressive activity in BALB/c mouse allografted with C57 mouse cardiac tissue assessed as suppression of graft rejection by measuring graft median survival time at 83 mg/kg, po
# Mus musculus [4] = assay: Immunosuppressive activity in BALB/c mouse allografted with C57 mouse cardiac tissue assessed as suppression of graft rejection by measuring graft median survival time at 83 mg/kg, po in presence of tacrolimus
# Mus musculus [5] = assay: Immunosuppressive activity in anti-CD3-stimulated mouse assessed as reduction in IL-2 level in whole blood at 40 mg/kg, po measured after 4 hrs by flow cytometry analysis; set-up: scale not given: the % may be the effect or the level left
# Mus musculus [6] = assay: Immunosuppressive activity in anti-CD3-stimulated mouse assessed as reduction in IL-2 level in whole blood at 55 mg/kg, po measured after 8 hrs by flow cytometry analysis; set-up: scale not given: the % may be the effect or the level left
# Mus musculus [7] = assay: Immunosuppressive activity in BALB/c mouse allografted with C57 mouse cardiac tissue assessed as suppression of graft rejection by measuring graft median survival time at 112 mg/kg, po in presence of tacrolimus
# Mus musculus [8] = assay: Immunosuppressive activity in anti-CD3-stimulated mouse assessed as reduction in IL-2 level in whole blood at 55 mg/kg, po measured after 1 hr by flow cytometry analysis; set-up: scale not given: the % may be the effect or the level left
# Mus musculus [9] = assay: Immunosuppressive activity in BALB/c mouse allografted with C57 mouse cardiac tissue assessed as suppression of graft rejection by measuring graft median survival time at 112 mg/kg, po
# Mus musculus [10] = assay: Immunosuppressive activity in anti-CD3-stimulated mouse assessed as reduction in IL-2 level in whole blood at 55 mg/kg, po measured after 4 hrs by flow cytometry analysis; set-up: scale not given: the % may be the effect or the level left
# Mus musculus [11] = assay: Immunosuppressive activity in anti-CD3-stimulated mouse assessed as reduction in IL-2 level in whole blood at 65 mg/kg, po measured after 1 hr by flow cytometry analysis; set-up: scale not given: the % may be the effect or the level left
# Mus musculus [12] = assay: Immunosuppressive activity in anti-CD3-stimulated mouse assessed as reduction in IL-2 level in whole blood at 65 mg/kg, po measured after 4 hrs by flow cytometry analysis; set-up: scale not given: the % may be the effect or the level left
# Mus musculus [13] = assay: Immunosuppressive activity in anti-CD3-stimulated mouse assessed as reduction in IL-2 level in whole blood at 65 mg/kg, po measured after 8 hrs by flow cytometry analysis; set-up: scale not given: the % may be the effect or the level left
# Mus musculus [14] = assay: Immunosuppressive activity in anti-CD3-stimulated mouse assessed as reduction in IL-2 level in whole blood at 25 mg/kg, po measured after 1 hr by flow cytometry analysis; set-up: scale not given: the % may be the effect or the level left
# Mus musculus [15] = assay: Immunosuppressive activity in anti-CD3-stimulated mouse assessed as reduction in IL-2 level in whole blood at 25 mg/kg, po measured after 8 hr by flow cytometry analysis; set-up: scale not given: the % may be the effect or the level left
# Mus musculus [16] = assay: Immunosuppressive activity in anti-CD3-stimulated mouse assessed as reduction in IL-2 level in whole blood at 25 mg/kg, po measured after 4 hr by flow cytometry analysis; set-up: scale not given: the % may be the effect or the level left
# Mus musculus [17] = assay: Immunosuppressive activity in anti-CD3-stimulated mouse assessed as reduction in IL-2 level in whole blood at 50 mg/kg, po measured after 8 hr by flow cytometry analysis; set-up: scale not given: the % may be the effect or the level left
# Mus musculus [18] = assay: Immunosuppressive activity in anti-CD3-stimulated mouse assessed as reduction in IL-2 level in whole blood at 50 mg/kg, po measured after 1 hr by flow cytometry analysis; set-up: scale not given: the % may be the effect or the level left
# Mus musculus [19] = assay: Immunosuppressive activity in anti-CD3-stimulated mouse assessed as reduction in IL-2 level in whole blood at 50 mg/kg, po measured after 4 hrs by flow cytometry analysis; set-up: scale not given: the % may be the effect or the level left
# Mus musculus [20] = assay: Immunosuppressive activity in BALB/c mouse allografted with C57 mouse cardiac tissue assessed as suppression of graft rejection by measuring graft median survival time at 4 mg/kg, IM
smiles,measurement,setting,value
CC(C)(C)C(=O)NC(=O)c1ncn([C@@H]2O[C@H](COC(=O)C(C)(C)C)[C@@H](O)[C@H]2O)c1O,Activity,Mus musculus [1],61.3%
same,Activity,Mus musculus [2],19.4%
same,MST,Mus musculus [3],11 days
same,MST,Mus musculus [4],55 days
same,Activity,Mus musculus [5],64.4%
NC(=O)c1ncn([C@@H]2O[C@H](COC(=O)[C@@H](N)CC(=O)OCc3ccccc3)[C@@H](O)[C@H]2O)c1O.O=C(O)C(F)(F)F,Activity,Mus musculus [6],27.7%
same,MST,Mus musculus [7],15.5 days
same,Activity,Mus musculus [8],77%
same,MST,Mus musculus [9],11 days
same,Activity,Mus musculus [10],32.7%
CC(C)CCOC(=O)C[C@H](NP(=O)(OC[C@H]1O[C@@H](n2cnc(C(N)=O)c2O)[C@H](O)[C@@H]1O)Oc1ccccc1)C(=O)OCCC(C)C (stereo not given in full),Activity,Mus musculus [11],14.7%
same,Activity,Mus musculus [12],18.3%
same,Activity,Mus musculus [13],17.5%
NC(=O)c1ncn([C@@H]2O[C@H](CO)[C@@H](O)[C@H]2O)c1O [MIZORIBINE],Activity,Mus musculus [14],55.6%
same,Activity,Mus musculus [15],7.3%
same,Activity,Mus musculus [16],8.6%
COc1c(C)c2c(c(O)c1C/C=C(\C)CCC(=O)OCCN1CCOCC1)C(=O)OC2 [MYCOPHENOLATE MOFETIL],Activity,Mus musculus [17],81.7%
same,Activity,Mus musculus [18],3.4%
same,Activity,Mus musculus [19],52.3%
C=CC[C@@H]1/C=C(\C)C[C@H](C)C[C@H](OC)[C@H]2O[C@@](O)(C(=O)C(=O)N3CCCC[C@H]3C(=O)O[C@H](/C(C)=C/[C@@H]3CC[C@@H](O)[C@H](OC)C3)[C@H](C)[C@@H](O)CC1=O)[C@H](C)C[C@@H]2OC [TACROLIMUS ANHYDROUS],MST,Mus musculus [20],8 days
